# Literature values, collected in patent US20070173447A1, “METHOD FOR TREATING OSTEOPOROSIS BY INTRANASAL DELIVERY OF TERIPARATIDE WITH AN ANTI-RESORPTIVE AGENT” (Nastech Pharmaceutical Company Inc., priority 2005, published 2007).
# Like-named read-outs stand apart in the source and are kept apart here. Ends that are not written are not given here.
# Experiments:
# [1] = rats, intraduodenal, with 1% (w/v) saline dispersion of polycarbophil
# [2] = intranasal, up to 500 μg per day for 7 days and up to 1,000 μg per day for 3 months
# [3] = after feeding to rats
# [4] = anesthetized rats
compound,measurement,setting,value
2-alkyl-4-hydroxyquinolines [pyo compound],concentration producing ciliostasis / inhibiting ciliary motility,ciliary motility,50 µg/mL
"9-desglycinamide, 8-arginine vasopressin [DGAVP]",bioavailability increase compared to aqueous solution without polymer,[1],3-5 fold
"CC[C@H](C)[C@H](NC(=O)[C@H](CCC(=O)O)NC(=O)[C@H](CO)NC(=O)[C@@H](NC(=O)[C@@H](N)CO)C(C)C)C(=O)N[C@@H](CCC(N)=O)C(=O)N[C@@H](CC(C)C)C(=O)N[C@@H](CCSC)C(=O)N[C@@H](Cc1cnc[nH]1)C(=O)N[C@@H](CC(N)=O)C(=O)N[C@@H](CC(C)C)C(=O)NCC(=O)N[C@@H](CCCCN)C(=O)N[C@@H](Cc1cnc[nH]1)C(=O)N[C@@H](CC(C)C)C(=O)N[C@@H](CC(N)=O)C(=O)N[C@@H](CO)C(=O)N[C@@H](CCSC)C(=O)N[C@@H](CCC(=O)O)C(=O)N[C@@H](CCCN=C(N)N)C(=O)N[C@H](C(=O)N[C@@H](CCC(=O)O)C(=O)N[C@@H](Cc1c[nH]c2ccccc12)C(=O)N[C@@H](CC(C)C)C(=O)N[C@@H](CCCN=C(N)N)C(=O)N[C@@H](CCCCN)C(=O)N[C@@H](CCCCN)C(=O)N[C@@H](CC(C)C)C(=O)N[C@@H](CCC(N)=O)C(=O)N[C@@H](CC(=O)O)C(=O)N[C@H](C(=O)N[C@@H](Cc1cnc[nH]1)C(=O)N[C@@H](CC(N)=O)C(=O)N[C@@H](Cc1ccccc1)C(=O)O)C(C)C)C(C)C [Teriparatide, teriparatide]",safety concerns,[2],No safety concerns were noted
Phaseolus vulgaris hemagglutinin,oral bioavailability,[3],more than 10%
hPTH1-31NH2 (SVSEIQLMHNLGKHLNSMERVEWLRKKLQDV-NH2; listed as Homo sapiens),restoration of bone loss,ovariectomized rat model,fully active
human growth hormone,nasal bioavailability,[4]; with N-acetyl-L-cysteine,12.2%
same,nasal bioavailability,[4]; without N-acetyl-L-cysteine,7.5%
